Experimental data taken from paper PMC3629081, “Tetrahydropyrazolo[1,5-a]Pyrimidine-3-Carboxamide and N-Benzyl-6′,7′-Dihydrospiro[Piperidine-4,4′-Thieno[3,2-c]Pyran] Analogues with Bactericidal Efficacy against Mycobacterium tuberculosis Targeting MmpL3” (PLoS ONE, 2013).
“And” between values parts separate entries of the source, which are not always exact repeats. Equal values may be shown once.

Assays:
[1] = tested on: M. tuberculosis; assay type: cell-based, Mycobacterium tuberculosis; details: 10x MIC
[2] = tested on: M. tuberculosis H37Rv mutants with MmpL3 mutations; assay type: cell-based, Mycobacterium tuberculosis

Compound	frequency of spontaneous resistant mutant generation [1]	Ratio MICmut/MICwt [2]	susceptibility of all isolated mutants to classic antitubercular drugs [2]
CCc1ccc([C@H]2C[C@@H](C(F)(F)F)n3ncc(C(=O)NCc4ccc(OC)cc4)c3N2)cc1 [Compound 1, (5R,7S)-5-(4-ethylphenyl)-N-(4-methoxybenzyl)-7-(trifluoromethyl)-4,5,6,7-tetrahydropyrazolo[1,5-a]pyrimidine-3-carboxamide]	6.4×10^−8 mutant/cfus	–	–
c1cc2c(s1)CCOC21CCN(Cc2ccc3c(c2)OCCO3)CC1 [Compound 2]	3.6×10^−8 mutant/cfus	–	–
CC[C@@H](CO)NCCN[C@@H](CC)CO [Ethambutol]	–	0.5 and 1.0 and 0.8	susceptible
CC(=O)NC[C@H]1CN(c2ccc(N3CCOCC3)c(F)c2)C(=O)O1 [Linezolid]	–	0.5 and 1.0	susceptible
COc1c(N2C[C@@H]3CCCN[C@@H]3C2)c(F)cc2c(=O)c(C(=O)O)cn(C3CC3)c12 [Moxifloxacin]	–	1.0 and 0.5	susceptible
